Series [1] concerns the target T1, N6-adenosine-methyltransferase catalytic subunit (Homo sapiens, UniProt Q86U44). Nature of the series: Inhibition of METTL3 (unknown origin).
The target of series [2] is T1, N6-adenosine-methyltransferase catalytic subunit. Nature of the series: Inhibition of METTL3 (unknown origin) assessed as remaining activity at 500 uM relative to control.
Series [3] is described as follows: Efflux ratio of apparent permeability across basolateral to apical side over apical to basolateral side in human Caco-2 cells. Format: ADME, cell-based. In general terms: Passage across Caco-2 layers is used to estimate intestinal permeability.
Series [4] can be described thus: Apparent permeability across apical to basolateral side in human Caco-2 cells. Format: ADME, cell-based.
Series [5] in a line: Apparent permeability across basolateral to apical side in human Caco-2 cells. The series is classed as ADME, cell-based.

T1 sequence (Q86U44 whole entry): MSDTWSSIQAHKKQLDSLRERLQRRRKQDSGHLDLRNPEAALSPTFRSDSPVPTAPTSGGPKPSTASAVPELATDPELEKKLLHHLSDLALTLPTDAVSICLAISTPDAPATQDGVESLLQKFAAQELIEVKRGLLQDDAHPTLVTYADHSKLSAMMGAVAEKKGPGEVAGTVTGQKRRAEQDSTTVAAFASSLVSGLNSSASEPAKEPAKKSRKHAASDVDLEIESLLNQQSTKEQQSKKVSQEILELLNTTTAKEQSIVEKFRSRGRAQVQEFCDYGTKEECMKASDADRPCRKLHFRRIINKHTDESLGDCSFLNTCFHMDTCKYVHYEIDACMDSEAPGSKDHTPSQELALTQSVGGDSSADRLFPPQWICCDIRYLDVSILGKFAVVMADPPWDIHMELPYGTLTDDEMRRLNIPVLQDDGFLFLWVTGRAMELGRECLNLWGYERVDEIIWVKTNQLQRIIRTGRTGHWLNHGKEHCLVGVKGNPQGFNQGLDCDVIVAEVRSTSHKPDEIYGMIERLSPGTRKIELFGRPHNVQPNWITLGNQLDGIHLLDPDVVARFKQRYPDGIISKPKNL

The term IC50 denotes the concentration that inhibits the measured activity by half. A high value points to lower potency. Turning to `Nc1ncnc2c1ncn2[C@@H]1O[C@H](C(=O)NCCCCN2CCCC2)[C@@H](O)[C@H]1O`, the IC50 in series [1] amounted to 8.7 µM.

Consider `Nc1ncnc2c1ncn2[C@@H]1O[C@H](C(=O)NCC2CCNCC2)[C@@H](O)[C@H]1O`, for which the IC50 in series [1] was over 250 µM. In the case of `Nc1ncnc2c1ncn2[C@@H]1O[C@H](C(=O)NCCCNC(=O)c2ccccn2)[C@@H](O)[C@H]1O`, the Activity in series [2] was 38%. In addition, in series [1], the IC50 stood at 332 µM. As usually defined, the efflux ratio is a quotient of directional permeabilities that is used to spot active efflux. One may read the Papp A→B as the apparent permeability from the apical to the basolateral side of a cell layer. For orientation: Papp B→A means the apparent permeability from the basolateral to the apical side of a cell layer. As for `COCCc1ccc(OCC(O)CNC(C)C)cc1` (configuration not stated) [METOPROLOL], the efflux ratio in series [3] was 1.1. Also, the Papp A→B in series [4] was found to be 31.4 ×10⁻⁶ cm/s. Further, the Papp B→A in series [5] is 33.3 ×10⁻⁶ cm/s. For the molecule `Nc1ncnc2c1ncn2C[C@H]1OC[C@@H](N)[C@H](O)[C@@H]1O`, the Activity in series [2] worked out at 107%. Moreover, in series [1], the IC50 was over 250 µM. Taken in the same sequence, the figures for `CN1CCC(NC(=O)[C@H]2O[C@@H](n3cnc4c(N)ncnc43)[C@H](O)[C@@H]2O)CC1` were 18% and 65 µM.

For `CC[C@H]1OC(=O)[C@H](C)[C@@H](O[C@H]2C[C@@](C)(OC)[C@@H](O)[C@H](C)O2)[C@H](C)[C@@H](O[C@@H]2O[C@H](C)C[C@H](N(C)C)[C@H]2O)[C@](C)(O)C[C@@H](C)C(=O)[C@H](C)[C@@H](O)[C@]1(C)O` [ERYTHROMYCIN], the Ratio in series [3] is on record as 62.9. The Papp in series [4] is given as 0.2 10^-6 cm/s; in series [5] it was 17.5 10^-6 cm/s. As for `CNC1CCC(O)(Cn2cnc3c(N)ncnc32)C(O)C1` (configuration not stated), in series [2], the Activity is 20%. For the same molecule, in series [1], the IC50 came to 98 µM. Regarding `Nc1ncnc2c1ncn2[C@@H]1O[C@H](CO)[C@@H](O)[C@H]1O` [ADENOSINE], in series [1], half-maximal inhibition (IC50) was put at 495 µM.

For the origin of these results see ChEMBL document CHEMBL5241109, “Roles and drug development of METTL3 (methyltransferase-like 3) in anti-tumor therapy” (Eur J Med Chem, 2022).
